Assay results published in the Kinase Knowledgebase extract (Sharma et al. 2016).

Each molecule was assayed against MAPK14 (human) (UniProt Q16539) (assay: Inhibition of MAPK14 Kinase Activity).
Sequence of MAPK14 (human) (Q16539 whole entry, looked up): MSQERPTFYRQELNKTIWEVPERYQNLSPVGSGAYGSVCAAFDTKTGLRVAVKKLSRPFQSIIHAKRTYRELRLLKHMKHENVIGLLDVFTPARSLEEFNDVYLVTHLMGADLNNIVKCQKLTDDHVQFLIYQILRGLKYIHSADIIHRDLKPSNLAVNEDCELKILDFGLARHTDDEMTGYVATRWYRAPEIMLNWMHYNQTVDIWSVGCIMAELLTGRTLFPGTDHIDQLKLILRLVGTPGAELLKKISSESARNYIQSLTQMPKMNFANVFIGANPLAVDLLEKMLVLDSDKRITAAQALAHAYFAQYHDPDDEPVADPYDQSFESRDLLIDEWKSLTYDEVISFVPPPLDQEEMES

IC50, ≤ 10 µM:
Nc1ccc(Cl)c(N2CC(Cc3ccc(F)cc3F)SCC2=O)c1Cl (configuration not stated)
Cc1cccc(NC(=O)NCc2ccccc2CC2CCC(=O)N(c3c(Cl)cccc3Cl)C2)c1 (configuration not stated)
O=C(O)CNc1cc(Cl)c(N2CC(Cc3ccc(F)cc3F)CCC2=O)c(Cl)c1 (configuration not stated)
CNC1CCC(Cl)C(N2CC(Cc3ccc(F)cc3F)CCC2=O)C1Cl (configuration not stated)
O=C1CCC(Cc2ccc(F)cc2F)CN1c1c(Cl)cc(NCCO)cc1Cl (configuration not stated)
O=C1CCC(Sc2ccc(F)cc2F)CN1c1c(Cl)sc(O)c1Cl (configuration not stated)
Cc1ccccc1CC1COC(=O)N(c2c(Cl)cccc2Cl)C1 (configuration not stated)
Cc1cc(C(=O)N(C)C)cc(C)c1N1CC(Cc2ccc(F)cc2F)CCC1=O (configuration not stated)
COc1ccccc1OC1CCC(=O)N(c2c(Cl)cccc2Cl)C1 (configuration not stated)
CNC(=O)CNc1cc(Cl)c(N2CC(Cc3ccc(F)cc3F)CCC2=O)c(Cl)c1 (configuration not stated)
O=C1SCC(Cc2ccc(F)cc2F)CN1c1c(Cl)ccc(CO)c1Cl (configuration not stated)
O=C(O)CCC(=O)Nc1cc(Cl)c(N2CC(Cc3ccc(F)cc3F)CCC2=O)c(Cl)c1 (configuration not stated)
O=C1NCC(Cc2ccc3ccccc3c2)CN1c1c(Cl)cccc1Cl (configuration not stated)
Cc1ccc(SC2CCC(=O)N(c3c(Cl)cncc3Cl)C2)c(C)c1 (configuration not stated)
O=C1CCC(Oc2ccc(Cl)cc2Cl)CN1c1c(Cl)cccc1Cl (configuration not stated)
O=C1CNC(Cc2ccc(F)cc2F)CN1c1c(Cl)cccc1Cl (configuration not stated)
O=C1CCC(Cc2cc(F)cc(F)c2)CN1c1c(Cl)cccc1Cl (configuration not stated)
Cc1ccccc1OC1CCC(=O)N(c2c(Cl)cccc2Cl)C1 (configuration not stated)
CN1CC(Cc2ccc(F)cc2F)CN(c2c(Cl)ccc(NC(=O)Cc3ccccc3)c2Cl)C1=O (configuration not stated)
CC(=O)NC1CC(Cl)C(N2CC(Oc3ccc(F)cc3F)CCC2=O)C(Cl)C1 (configuration not stated)
CC(=O)NC1CCC(Cl)C(N2CC(Cc3ccc(F)cc3F)CCC2=O)C1Cl (configuration not stated)
O=C1CCC(Oc2ccc3ccccc3c2)CN1C1C(Cl)CCCC1Cl (configuration not stated)
O=C(Cc1ccccc1)Nc1cc(Cl)c(N2CC(Sc3ccc(F)cc3F)CCC2=O)c(Cl)c1 (configuration not stated)
O=C1CCC(Cc2cc(F)cc(F)c2)CN1C1C(Cl)CCCC1Cl (configuration not stated)
CC(=O)Nc1ccc(Cl)c(N2CC(Cc3ccc(F)cc3F)OCC2=O)c1Cl (configuration not stated)
O=C1CCC(Cc2ccc(F)cc2F)CN1c1c(Cl)ccc(O)c1Cl (configuration not stated)
COc1ccc(SC2CCC(=O)N(c3c(Cl)ccnc3Cl)C2)cc1 (configuration not stated)
O=C1CCC(Cc2ccc(F)cc2)CN1c1c(Cl)cncc1Cl (configuration not stated)
O=C(Cc1ccccc1)Nc1cc(Cl)c(N2CC(Oc3ccc(F)cc3F)CCC2=O)c(Cl)n1 (configuration not stated)
O=C1CCC(Oc2ccccc2F)CN1c1c(Cl)ccnc1Cl (configuration not stated)
O=C1CCC(Cc2ccc(Cl)cc2)CN1c1c(Cl)ccnc1Cl (configuration not stated)
Cc1ccc(CC2CN(c3c(Cl)cccc3Cl)C(=O)CO2)c(C)c1 (configuration not stated)
O=C1CCC(Sc2cc(Cl)cc(Cl)c2)CN1C1C(Cl)CCCC1Cl (configuration not stated)
C[C@@H]1C[C@H](Cc2ccc(F)cc2F)CN(c2c(Cl)cccc2Cl)C1=O
COC(=O)c1cc(Cl)c(N2CC(Cc3ccc(F)cc3F)CCC2=O)c(Cl)c1 (configuration not stated)
CCOC(=O)CCCC(=O)Nc1cc(Cl)c(N2CC(Cc3ccc(F)cc3F)CCC2=O)c(Cl)c1 (configuration not stated)
CNc1ccc(Cl)c(N2CC(Cc3ccc(F)cc3F)CCC2=O)c1Cl (configuration not stated)
Cc1cc(C(=O)O)cc(C)c1N1CC(Cc2ccc(F)cc2F)CCC1=O (configuration not stated)
COc1ccccc1CC1CN(c2c(Cl)cccc2Cl)C(=O)CO1 (configuration not stated)
Cc1cc(N)cc(C)c1N1CC(Cc2ccc(F)cc2F)CCC1=O (configuration not stated)
Nc1cc(Cl)c(N2CC(Cc3ccc(F)cc3F)OCC2=O)c(Cl)c1 (configuration not stated)
O=C1CCC(Cc2cc(Cl)cc(Cl)c2)CN1c1c(Cl)cccc1Cl (configuration not stated)
O=C1CCC(Oc2ccc(F)cc2F)CN1c1c(Cl)sc(O)c1Cl (configuration not stated)
COc1ccccc1CC1CCC(=O)N(c2c(Cl)cncc2Cl)C1 (configuration not stated)
Nc1cc(Cl)c(N2CC(Cc3ccc(F)cc3F)SCC2=O)c(Cl)c1 (configuration not stated)
O=C1OCC(Cc2ccc(F)cc2F)CN1c1c(Cl)ccc(O)c1Cl (configuration not stated)
O=C1CCC(Cc2ccc(F)cc2F)CN1c1c(Cl)ccnc1Cl (configuration not stated)
O=C1CSC(Cc2cc(Cl)cc(Cl)c2)CN1c1c(Cl)cccc1Cl (configuration not stated)
O=C(Cc1ccccc1)Nc1ccc(Cl)c(N2CC(Cc3ccc(F)cc3F)CSC2=O)c1Cl (configuration not stated)
O=C1CCC(Oc2ccccc2Cl)CN1c1c(Cl)csc1Cl (configuration not stated)
O=C1CCC(Sc2ccc(Cl)cc2)CN1c1c(Cl)csc1Cl (configuration not stated)
O=C1NCC(Cc2ccc(F)cc2F)CN1c1c(Cl)ccc(CO)c1Cl (configuration not stated)
NC1CCC(Cl)C(N2CC(Sc3ccc(F)cc3F)CCC2=O)C1Cl (configuration not stated)
O=C1CSC(Cc2ccccc2F)CN1c1c(Cl)cccc1Cl (configuration not stated)
CC(C)(C)OC(=O)N1CCC(Nc2cc(Cl)c(N3CC(Cc4ccc(F)cc4F)CCC3=O)c(Cl)c2)CC1 (configuration not stated)
O=C1CCC(Oc2cccc3ccccc23)CN1c1c(Cl)csc1Cl (configuration not stated)
Cc1cc(/C=C/C(=O)O)cc(C)c1N1CC(Cc2ccc(F)cc2F)CCC1=O (configuration not stated)
Cc1ccc(SC2CCC(=O)N(C3C(Cl)CCCC3Cl)C2)c(C)c1 (configuration not stated)
Cc1ccc(CC2CCC(=O)N(C3C(Cl)CCCC3Cl)C2)cc1 (configuration not stated)
O=C1CCC(Oc2ccc(F)cc2)CN1c1c(Cl)csc1Cl (configuration not stated)
Cc1ccc(SC2CCC(=O)N(c3c(Cl)ccnc3Cl)C2)c(C)c1 (configuration not stated)
O=C1CCC(Sc2cc(F)cc(F)c2)CN1c1c(Cl)cccc1Cl (configuration not stated)
O=C(Cc1ccccc1)Nc1cnc(Cl)c(N2CC(Oc3ccc(F)cc3F)CCC2=O)c1Cl (configuration not stated)
O=C(NCc1ccccc1)NCc1ccccc1CC1CCC(=O)N(c2c(Cl)cccc2Cl)C1 (configuration not stated)
O=C1CCC(Oc2ccc(F)cc2)CN1c1c(Cl)cncc1Cl (configuration not stated)
Cc1cc(NC(=O)OC(C)(C)C)cc(C)c1N1CC(Cc2ccc(F)cc2F)CNC1=O (configuration not stated)
CC(=O)Nc1cc(Cl)c(N2CC(Oc3ccc(F)cc3F)CCC2=O)c(Cl)c1 (configuration not stated)
O=C(Cc1ccccc1)NC1CC(Cl)C(N2CC(Sc3ccc(F)cc3F)CCC2=O)C(Cl)C1 (configuration not stated)
CC(=O)NC1CC(Cl)C(N2CC(Sc3ccc(F)cc3F)CCC2=O)C(Cl)C1 (configuration not stated)
CC(=O)Nc1cc(Cl)c(N2CC(Cc3ccc(F)cc3F)COC2=O)c(Cl)c1 (configuration not stated)
O=C1CCC(Cc2ccc(Cl)cc2Cl)CN1c1c(Cl)cccc1Cl (configuration not stated)
CC(=O)Nc1ccc(Cl)c(N2CC(Cc3ccc(F)cc3F)SCC2=O)c1Cl (configuration not stated)
Cc1cccc(C)c1N1C[C@@H](N(CCO)S(=O)(=O)c2ccc(F)cc2F)CCC1=O
Cc1ccc(CC2CNC(=O)N(c3c(Cl)cccc3Cl)C2)c(C)c1 (configuration not stated)
O=C1CCC(Sc2ccc3ccccc3c2)CN1c1c(Cl)cccc1Cl (configuration not stated)
O=C1CCC(Cc2ccc(F)cc2F)CN1c1c(Cl)cc(C#CCCO)cc1Cl (configuration not stated)
O=C(NCc1ccccc1CC1CCC(=O)N(c2c(Cl)cccc2Cl)C1)Nc1ccccc1 (configuration not stated)
CNc1ccc(Cl)c(N2CC(Cc3ccc(F)cc3F)CSC2=O)c1Cl (configuration not stated)
O=C1COC(Cc2cccc3ccccc23)CN1c1c(Cl)cccc1Cl (configuration not stated)
O=C(Cc1ccccc1)Nc1cc(Cl)c(N2CC(Cc3ccc(F)cc3F)CCC2=O)c(Cl)n1 (configuration not stated)
COc1ccc(OC2CCC(=O)N(c3c(Cl)cncc3Cl)C2)cc1 (configuration not stated)
Cc1cc(C)cc(OC2CCC(=O)N(c3c(Cl)cncc3Cl)C2)c1 (configuration not stated)
Cc1cc(C)cc(OC2CCC(=O)N(c3c(Cl)csc3Cl)C2)c1 (configuration not stated)
CCOC(=O)CCNC(=O)c1cc(C)c(N2CC(Cc3ccc(F)cc3F)CCC2=O)c(C)c1 (configuration not stated)
Cc1cc(C)cc(OC2CCC(=O)N(c3c(Cl)ccnc3Cl)C2)c1 (configuration not stated)
O=C(Cc1ccccc1)Nc1sc(Cl)c(N2CC(Sc3ccc(F)cc3F)CCC2=O)c1Cl (configuration not stated)
Cc1ccccc1OC1CCC(=O)N(c2c(Cl)cncc2Cl)C1 (configuration not stated)
O=C1CCC(Oc2ccc3ccccc3c2)CN1c1c(Cl)csc1Cl (configuration not stated)
CC(C)(C)OC(=O)Nc1cc(Cl)c(N2CC(Cc3ccccc3F)CCC2=O)c(Cl)c1 (configuration not stated)
O=C1CCC(Oc2ccc(F)cc2F)CN1c1c(Cl)csc1Cl (configuration not stated)
O=C(CCCO)Nc1cc(Cl)c(N2CC(Cc3ccc(F)cc3F)CCC2=O)c(Cl)c1 (configuration not stated)
Nc1ccc(Cl)c(N2CC(Cc3ccc(F)cc3F)CCC2=O)c1Cl (configuration not stated)
Cc1cc(C#CCN(C)C)cc(C)c1N1C[C@@H](Cc2ccc(F)cc2F)C[C@@H](C)C1=O
CN1CC(Cc2ccccc2Cl)CN(c2c(Cl)cccc2Cl)C1=O (configuration not stated)
O=C1CSC(Cc2ccc(Cl)cc2)CN1c1c(Cl)cccc1Cl (configuration not stated)
O=C1CCC(Nc2ccc(F)cc2F)CN1c1c(Cl)cccc1Cl (configuration not stated)
O=C1COC(Cc2ccc(F)cc2F)CN1c1c(Cl)ccc(CO)c1Cl (configuration not stated)
